Target: METTL3/METTL14 (Homo sapiens, UniProt Q86U44)
Test: METTL3-14 standard enzyme assay (3H-SAM flashplate)
Conditions: METTL3 biochemical assay
Protocol: METTL3-14 Standard Enzyme Assay
Assays were performed in a 25 μl-volume in 384-well V-bottom polypropylene microplates (Greiner Bio-One, cat. No. 781280) at ambient temperature. Optimized 1× assay buffer was 20 mM HEPES pH 7.5, 50 mM KCl, 250 μM MgCl2, 1 mM DTT, 0.01% Tween, 0.01% BSG, 0.004 U/μl RNAseOUT (cat. No. 10777019, ThermoFisher Scientific, Waltham, MA). For compound screening METTL3/METTL14 (final concentration, f.c.=2.5 nM) was added using a Multidrop Combi (ThermoFisher Scientific, Waltham, MA) and preincubated for 5 min. Reactions were started by adding 3′ biotinylated RNA (UCUGGACUAAA-biotin) (f.c.=100 nM) and 3H-SAM (f.c.=100 nM) substrates. Reactions proceeded for 30 minutes and were quenched with excess non-radioactive SAM (f.c.=15 μM). The reactions were then transferred to streptavidin-coated flashplates and incubated for 2 hours at 25° C. Following two washing cycles with 0.1% Tween-20, the plates were sealed and read on a TopCount (PerkinElmer, Waltham, MA) plate-based scintillation counter. For determination of kinetic parameters, reaction times were optimized so that measurements were taken during the initial velocity phase of the reaction.

METTL3/METTL14, sequence (Q86U44 whole entry, species assumed): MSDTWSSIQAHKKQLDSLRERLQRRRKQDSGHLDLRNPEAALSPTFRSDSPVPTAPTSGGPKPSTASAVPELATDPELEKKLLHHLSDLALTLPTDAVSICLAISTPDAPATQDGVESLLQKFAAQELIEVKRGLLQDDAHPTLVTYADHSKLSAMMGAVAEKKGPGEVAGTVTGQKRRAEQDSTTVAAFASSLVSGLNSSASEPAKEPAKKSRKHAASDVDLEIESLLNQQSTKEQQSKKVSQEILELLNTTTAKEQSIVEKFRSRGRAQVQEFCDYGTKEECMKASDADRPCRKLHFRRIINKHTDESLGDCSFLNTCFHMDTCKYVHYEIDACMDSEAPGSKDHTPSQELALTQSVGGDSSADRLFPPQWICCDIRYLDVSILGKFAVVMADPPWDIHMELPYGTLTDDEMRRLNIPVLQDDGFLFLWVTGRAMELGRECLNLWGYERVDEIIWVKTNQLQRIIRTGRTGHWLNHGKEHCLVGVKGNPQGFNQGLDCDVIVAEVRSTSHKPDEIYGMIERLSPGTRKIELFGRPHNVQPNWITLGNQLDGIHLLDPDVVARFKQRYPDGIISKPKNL
METTL3/METTL14, sequence (Q9HCE5 whole entry partner, species assumed): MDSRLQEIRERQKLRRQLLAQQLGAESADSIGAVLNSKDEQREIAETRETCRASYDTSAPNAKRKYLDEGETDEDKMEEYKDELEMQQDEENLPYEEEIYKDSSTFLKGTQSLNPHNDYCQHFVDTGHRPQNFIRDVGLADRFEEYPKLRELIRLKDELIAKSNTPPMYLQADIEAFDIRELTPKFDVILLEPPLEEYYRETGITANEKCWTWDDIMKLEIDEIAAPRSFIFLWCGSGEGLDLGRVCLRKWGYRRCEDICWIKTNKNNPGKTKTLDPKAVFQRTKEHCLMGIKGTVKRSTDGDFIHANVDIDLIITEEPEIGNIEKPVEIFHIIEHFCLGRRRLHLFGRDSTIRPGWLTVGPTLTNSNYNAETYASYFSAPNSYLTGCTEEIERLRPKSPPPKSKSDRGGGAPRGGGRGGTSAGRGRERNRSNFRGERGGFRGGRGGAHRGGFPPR

IC50 (Table 4) [nM]	IC50 (Table 3) [nM]	Structure (SMILES)
100 to 1000		Cn1ccc(-c2cn([C@@H]3O[C@H](C(=O)Nc4ccc(S(=O)(=O)N5CCOCC5)cc4)[C@@H](O)[C@H]3O)c3ncnc(N)c23)n1 [Compound I-107]
100 to 1000		Cn1ccc(-c2cn([C@@H]3O[C@H](C(=O)Nc4ccc(-n5cnnn5)cc4)[C@@H](O)[C@H]3O)c3ncnc(N)c23)n1 [Compound I-138]
100 to 1000		Cn1ccc(-c2cn([C@@H]3O[C@H](C(=O)Nc4ccc(Oc5ccccc5)cc4)[C@@H](O)[C@H]3O)c3ncnc(N)c23)n1 [Compound I-100]
100 to 1000		Cn1ccc(-c2cn([C@@H]3O[C@H](C(=O)Nc4ccncc4Cl)[C@@H](O)[C@H]3O)c3ncnc(N)c23)n1 [Compound I-122]
100 to 1000		CC(CCc1ccccc1)NC(=O)[C@H]1O[C@@H](n2cc(-c3ccn(C)n3)c3c(N)ncnc32)[C@H](O)[C@@H]1O (some centres unmarked) [Compound I-137]
≥ 1000		Cn1ccc(-c2cn([C@@H]3O[C@H](C(=O)Nc4ccc(-c5ccccc5)cn4)[C@@H](O)[C@H]3O)c3ncnc(N)c23)n1 [Compound I-79]
≥ 1000		Cc1cc(CNC(=O)[C@H]2O[C@@H](n3cc(-c4ccn(C)n4)c4c(N)ncnc43)[C@H](O)[C@@H]2O)ccc1F [Compound I-77]
100 to 1000		Cn1ccc(-c2cn([C@@H]3O[C@H](C(=O)N4CCc5ccccc54)[C@@H](O)[C@H]3O)c3ncnc(N)c23)n1 [Compound I-99]
≥ 1000		Cn1ccc(-c2cn([C@@H]3O[C@H](C(=O)Nc4nccc5ccccc45)[C@@H](O)[C@H]3O)c3ncnc(N)c23)n1 [Compound I-78]
100 to 1000		CCCCc1ccc(NC(=O)[C@H]2O[C@@H](n3cc(-c4ccn(C)n4)c4c(N)ncnc43)[C@H](O)[C@@H]2O)cc1 [Compound I-110]
≥ 1000		Cc1nsc(NC(=O)[C@H]2O[C@@H](n3cc(-c4ccn(C)n4)c4c(N)ncnc43)[C@H](O)[C@@H]2O)n1 [Compound I-83]
≥ 1000		Cc1ccc(Cl)c(NC(=O)[C@H]2O[C@@H](n3cc(-c4ccn(C)n4)c4c(N)ncnc43)[C@H](O)[C@@H]2O)c1 [Compound I-72]
≥ 1000		Cn1ccc(-c2cn([C@@H]3O[C@H](C(=O)NCCN4CCOCC4)[C@@H](O)[C@H]3O)c3ncnc(N)c23)n1 [Compound I-65]
100 to 1000		Cn1ccc(-c2cn([C@@H]3O[C@H](C(=O)Nc4ccc5c(c4)NC(=O)CC5)[C@@H](O)[C@H]3O)c3ncnc(N)c23)n1 [Compound I-123]
100 to 1000		Cn1ccc(-c2cn([C@@H]3O[C@H](C(=O)NCCC4CCCCC4)[C@@H](O)[C@H]3O)c3ncnc(N)c23)n1 [Compound I-120]
100 to 1000		Cn1ccc(-c2cn([C@@H]3O[C@H](C(=O)NC4CCN(S(C)(=O)=O)CC4)[C@@H](O)[C@H]3O)c3ncnc(N)c23)n1 [Compound I-95]
100 to 1000		CC(=O)Nc1ccccc1NC(=O)[C@H]1O[C@@H](n2cc(-c3ccn(C)n3)c3c(N)ncnc32)[C@H](O)[C@@H]1O [Compound I-130]
≥ 1000		Cc1cccnc1NC(=O)[C@H]1O[C@@H](n2cc(-c3ccn(C)n3)c3c(N)ncnc32)[C@H](O)[C@@H]1O [Compound I-93]
100 to 1000		CN1CCN(c2ccc(NC(=O)[C@H]3O[C@@H](n4cc(-c5ccn(C)n5)c5c(N)ncnc54)[C@H](O)[C@@H]3O)nc2)CC1 [Compound I-127]
100 to 1000		Cn1ccc(-c2cn([C@@H]3O[C@H](C(=O)Nc4cccc(C#N)c4)[C@@H](O)[C@H]3O)c3ncnc(N)c23)n1 [Compound I-105]
100 to 1000		Cc1cc(CNC(=O)[C@H]2O[C@@H](n3cc(-c4ccn(C)n4)c4c(N)ncnc43)[C@H](O)[C@@H]2O)no1 [Compound I-106]
100 to 1000		Cn1ccc(-c2cn([C@@H]3O[C@H](C(=O)NCCC4CCOCC4)[C@@H](O)[C@H]3O)c3ncnc(N)c23)n1 [Compound I-96]
≥ 1000		Cn1ccc(-c2cn([C@@H]3O[C@H](C(=O)N[C@H](CO)c4ccccc4)[C@@H](O)[C@H]3O)c3ncnc(N)c23)n1 [Compound I-87]
100 to 1000		Cn1ccc(-c2cn([C@@H]3O[C@H](C(=O)NC4Cc5ccccc5C4)[C@@H](O)[C@H]3O)c3ncnc(N)c23)n1 [Compound I-126]
	≥ 1000	Nc1ncnc2c1c(-n1cccn1)cn2[C@H]1C[C@H](O)[C@@H](C(=O)Nc2cc(NC3CCC3)ccn2)O1 [Compound I-17, (2S,3S,5R)-5-[4-amino-5-(1H-pyrazol-1-yl)-7H-pyrrolo[2,3-d]pyrimidin-7-yl]-N-[4-(cyclobutylamino)pyridin-2-yl]-3-hydroxyoxolane-2-carboxamide]
≥ 1000		Cn1ccc(-c2cn([C@@H]3O[C@H](C(=O)Nc4cc(Cl)cc(Cl)c4)[C@@H](O)[C@H]3O)c3ncnc(N)c23)n1 [Compound I-67]
≥ 1000		Cc1ccc2nc(NC(=O)[C@H]3O[C@@H](n4cc(-c5ccn(C)n5)c5c(N)ncnc54)[C@H](O)[C@@H]3O)sc2c1 [Compound I-68]

IC50 (Table 4) [nM]	IC50 (Table 3) [nM]	Structure (SMILES)
100 to 1000		CNC(=O)c1ccc(NC(=O)[C@H]2O[C@@H](n3cc(-c4ccn(C)n4)c4c(N)ncnc43)[C@H](O)[C@@H]2O)cc1 [Compound I-136]
100 to 1000		Cn1ccc(-c2cn([C@@H]3O[C@H](C(=O)NC4CCC(O)CC4)[C@@H](O)[C@H]3O)c3ncnc(N)c23)n1 (some centres unmarked) [Compound I-103]
≥ 1000		Cn1ccc(-c2cn([C@@H]3O[C@H](C(=O)Nc4cccc(N5CCOCC5)c4)[C@@H](O)[C@H]3O)c3ncnc(N)c23)n1 [Compound I-74]
100 to 1000		COc1ccccc1CNC(=O)[C@H]1O[C@@H](n2cc(-c3ccn(C)n3)c3c(N)ncnc32)[C@H](O)[C@@H]1O [Compound I-97]
≥ 1000		Cn1ccc(-c2cn([C@@H]3O[C@H](C(=O)Nc4cnccn4)[C@@H](O)[C@H]3O)c3ncnc(N)c23)n1 [Compound I-91]
≥ 1000		CC(O)CNC(=O)[C@H]1O[C@@H](n2cc(-c3ccn(C)n3)c3c(N)ncnc32)[C@H](O)[C@@H]1O (some centres unmarked) [Compound I-81]
100 to 1000		Cn1ccc(-c2cn([C@@H]3O[C@H](C(=O)Nc4ccc(CN5CCS(=O)(=O)CC5)cc4)[C@@H](O)[C@H]3O)c3ncnc(N)c23)n1 [Compound I-125]
100 to 1000		Cn1ccc(-c2cn([C@@H]3O[C@H](C(=O)Nc4ccc5ccccc5c4)[C@@H](O)[C@H]3O)c3ncnc(N)c23)n1 [Compound I-114]
100 to 1000		Cn1cc(NC(=O)[C@H]2O[C@@H](n3cc(-c4ccn(C)n4)c4c(N)ncnc43)[C@H](O)[C@@H]2O)cn1 [Compound I-104]
100 to 1000		Cn1ccc(-c2cn([C@@H]3O[C@H](C(=O)Nc4ccc(C(=O)N5CCCCC5)cc4)[C@@H](O)[C@H]3O)c3ncnc(N)c23)n1 [Compound I-135]
	< 10	Nc1ncnc2c1c(-n1cccn1)cn2[C@H]1C[C@H](O)[C@@H](C(=O)Nc2ccc3ccc(NC4CCC4)nc3c2)O1 [Compound I-16]
100 to 1000		Cn1ccc(-c2cn([C@@H]3O[C@H](C(=O)Nc4ccc(OCCN5CCOCC5)cc4)[C@@H](O)[C@H]3O)c3ncnc(N)c23)n1 [Compound I-139]
100 to 1000		Cc1cc(C#N)ccc1NC(=O)[C@H]1O[C@@H](n2cc(-c3ccn(C)n3)c3c(N)ncnc32)[C@H](O)[C@@H]1O [Compound I-113]
10 to 100		Cc1nc2cc(NC(=O)[C@H]3O[C@@H](n4cc(-c5ccn(C)n5)c5c(N)ncnc54)[C@H](O)[C@@H]3O)ccc2o1 [Compound I-141]
100 to 1000		COc1ccccc1[C@H](C)NC(=O)[C@H]1O[C@@H](n2cc(-c3ccn(C)n3)c3c(N)ncnc32)[C@H](O)[C@@H]1O [Compound I-119]
10 to 100		COc1ccc(NC(=O)[C@H]2O[C@@H](n3cc(-c4ccn(C)n4)c4c(N)ncnc43)[C@H](O)[C@@H]2O)cc1Cl [Compound I-140]
≥ 1000		CN(C)S(=O)(=O)c1cccc(NC(=O)[C@H]2O[C@@H](n3cc(-c4ccn(C)n4)c4c(N)ncnc43)[C@H](O)[C@@H]2O)c1 [Compound I-90]
100 to 1000		Cn1ccc(-c2cn([C@@H]3O[C@H](C(=O)NCCc4ccccc4Cl)[C@@H](O)[C@H]3O)c3ncnc(N)c23)n1 [Compound I-133]
≥ 1000		Cc1noc(NC(=O)[C@H]2O[C@@H](n3cc(-c4ccn(C)n4)c4c(N)ncnc43)[C@H](O)[C@@H]2O)c1C [Compound I-75]
≥ 1000		CCc1cccc(NC(=O)[C@H]2O[C@@H](n3cc(-c4ccn(C)n4)c4c(N)ncnc43)[C@H](O)[C@@H]2O)n1 [Compound I-85]
≥ 1000		Cn1ccc(-c2cn([C@@H]3O[C@H](C(=O)Nc4nccs4)[C@@H](O)[C@H]3O)c3ncnc(N)c23)n1 [Compound I-82]
100 to 1000		Cn1ccc(-c2cn([C@@H]3O[C@H](C(=O)NCCc4ccc5ccccc5c4)[C@@H](O)[C@H]3O)c3ncnc(N)c23)n1 [Compound I-134]
100 to 1000		Cn1ccc(-c2cn([C@@H]3O[C@H](C(=O)Nc4ccnn4C)[C@@H](O)[C@H]3O)c3ncnc(N)c23)n1 [Compound I-109]
100 to 1000		Cn1ccc(-c2cn([C@@H]3O[C@H](C(=O)NCc4ccc5ccccc5c4)[C@@H](O)[C@H]3O)c3ncnc(N)c23)n1 [Compound I-131]
≥ 1000		Cn1ccc(-c2cn([C@@H]3O[C@H](C(=O)Nc4ccc(Br)c(Cl)c4)[C@@H](O)[C@H]3O)c3ncnc(N)c23)n1 [Compound I-63]
100 to 1000		Cn1ccc(-c2cn([C@@H]3O[C@H](C(=O)NCCCn4ccnc4)[C@@H](O)[C@H]3O)c3ncnc(N)c23)n1 [Compound I-102]

— patent publication US20240051985A1, “METTL3 MODULATORS” (ACCENT THERAPEUTICS, INC., priority 2020, published 2024)
